Tested on: VSV-d51-GFP
Format: cell-based

SMILES | amount of GFP-positive cells as an indication of VSV replication
Nc1ccccc1NC(=O)c1ccc(CNC(=O)OCc2cccnc2)cc1 [MS-275] | increased the amount of GFP-positive cells
O=C(/C=C/c1cccc(S(=O)(=O)Nc2ccccc2)c1)NO [PXD101] | increased the amount of GFP-positive cells
O=C(CCCCCCC(=O)Nc1ccccc1)NO [SAHA, suberoylanilide hydroxamic acid] | increased the amount of GFP-positive cells
CCCC(CCC)C(=O)O [VPA] | little to no effect
